These results are taken from PMC5286435, “Honeybee locomotion is impaired by Am-CaV3 low voltage-activated Ca^2+ channel antagonist” (Scientific Reports, 2017).

For assay [1], the target named is T1, Am-CaV3 (Apis mellifera, UniProt A0ACM8RFK5).
T1 construct: gene LOC551883; full channel alpha1 subunit cloned from honeybee, mRNA injected in Xenopus oocytes, without CaVbeta; N-terminal region peptide CFDVPSSDGPSDPS (antibody antigen)
Briefly: two-electrode voltage clamp in Xenopus oocytes, Ba2+ current block. The class given is cell-based. In general terms: In two-electrode clamp one electrode senses voltage and the other passes current.

Assay [2] has as its target T1, Am-CaV3. The description is as above. Conditions: inhibition (blocker), 10 mM Ba2+, reversible, code printed NNC55-0398 in text, NNC 55-0396 in Figure 1 legend. Type of assay: cell-based.

T1 sequence (A0ACM8RFK5 1-2566): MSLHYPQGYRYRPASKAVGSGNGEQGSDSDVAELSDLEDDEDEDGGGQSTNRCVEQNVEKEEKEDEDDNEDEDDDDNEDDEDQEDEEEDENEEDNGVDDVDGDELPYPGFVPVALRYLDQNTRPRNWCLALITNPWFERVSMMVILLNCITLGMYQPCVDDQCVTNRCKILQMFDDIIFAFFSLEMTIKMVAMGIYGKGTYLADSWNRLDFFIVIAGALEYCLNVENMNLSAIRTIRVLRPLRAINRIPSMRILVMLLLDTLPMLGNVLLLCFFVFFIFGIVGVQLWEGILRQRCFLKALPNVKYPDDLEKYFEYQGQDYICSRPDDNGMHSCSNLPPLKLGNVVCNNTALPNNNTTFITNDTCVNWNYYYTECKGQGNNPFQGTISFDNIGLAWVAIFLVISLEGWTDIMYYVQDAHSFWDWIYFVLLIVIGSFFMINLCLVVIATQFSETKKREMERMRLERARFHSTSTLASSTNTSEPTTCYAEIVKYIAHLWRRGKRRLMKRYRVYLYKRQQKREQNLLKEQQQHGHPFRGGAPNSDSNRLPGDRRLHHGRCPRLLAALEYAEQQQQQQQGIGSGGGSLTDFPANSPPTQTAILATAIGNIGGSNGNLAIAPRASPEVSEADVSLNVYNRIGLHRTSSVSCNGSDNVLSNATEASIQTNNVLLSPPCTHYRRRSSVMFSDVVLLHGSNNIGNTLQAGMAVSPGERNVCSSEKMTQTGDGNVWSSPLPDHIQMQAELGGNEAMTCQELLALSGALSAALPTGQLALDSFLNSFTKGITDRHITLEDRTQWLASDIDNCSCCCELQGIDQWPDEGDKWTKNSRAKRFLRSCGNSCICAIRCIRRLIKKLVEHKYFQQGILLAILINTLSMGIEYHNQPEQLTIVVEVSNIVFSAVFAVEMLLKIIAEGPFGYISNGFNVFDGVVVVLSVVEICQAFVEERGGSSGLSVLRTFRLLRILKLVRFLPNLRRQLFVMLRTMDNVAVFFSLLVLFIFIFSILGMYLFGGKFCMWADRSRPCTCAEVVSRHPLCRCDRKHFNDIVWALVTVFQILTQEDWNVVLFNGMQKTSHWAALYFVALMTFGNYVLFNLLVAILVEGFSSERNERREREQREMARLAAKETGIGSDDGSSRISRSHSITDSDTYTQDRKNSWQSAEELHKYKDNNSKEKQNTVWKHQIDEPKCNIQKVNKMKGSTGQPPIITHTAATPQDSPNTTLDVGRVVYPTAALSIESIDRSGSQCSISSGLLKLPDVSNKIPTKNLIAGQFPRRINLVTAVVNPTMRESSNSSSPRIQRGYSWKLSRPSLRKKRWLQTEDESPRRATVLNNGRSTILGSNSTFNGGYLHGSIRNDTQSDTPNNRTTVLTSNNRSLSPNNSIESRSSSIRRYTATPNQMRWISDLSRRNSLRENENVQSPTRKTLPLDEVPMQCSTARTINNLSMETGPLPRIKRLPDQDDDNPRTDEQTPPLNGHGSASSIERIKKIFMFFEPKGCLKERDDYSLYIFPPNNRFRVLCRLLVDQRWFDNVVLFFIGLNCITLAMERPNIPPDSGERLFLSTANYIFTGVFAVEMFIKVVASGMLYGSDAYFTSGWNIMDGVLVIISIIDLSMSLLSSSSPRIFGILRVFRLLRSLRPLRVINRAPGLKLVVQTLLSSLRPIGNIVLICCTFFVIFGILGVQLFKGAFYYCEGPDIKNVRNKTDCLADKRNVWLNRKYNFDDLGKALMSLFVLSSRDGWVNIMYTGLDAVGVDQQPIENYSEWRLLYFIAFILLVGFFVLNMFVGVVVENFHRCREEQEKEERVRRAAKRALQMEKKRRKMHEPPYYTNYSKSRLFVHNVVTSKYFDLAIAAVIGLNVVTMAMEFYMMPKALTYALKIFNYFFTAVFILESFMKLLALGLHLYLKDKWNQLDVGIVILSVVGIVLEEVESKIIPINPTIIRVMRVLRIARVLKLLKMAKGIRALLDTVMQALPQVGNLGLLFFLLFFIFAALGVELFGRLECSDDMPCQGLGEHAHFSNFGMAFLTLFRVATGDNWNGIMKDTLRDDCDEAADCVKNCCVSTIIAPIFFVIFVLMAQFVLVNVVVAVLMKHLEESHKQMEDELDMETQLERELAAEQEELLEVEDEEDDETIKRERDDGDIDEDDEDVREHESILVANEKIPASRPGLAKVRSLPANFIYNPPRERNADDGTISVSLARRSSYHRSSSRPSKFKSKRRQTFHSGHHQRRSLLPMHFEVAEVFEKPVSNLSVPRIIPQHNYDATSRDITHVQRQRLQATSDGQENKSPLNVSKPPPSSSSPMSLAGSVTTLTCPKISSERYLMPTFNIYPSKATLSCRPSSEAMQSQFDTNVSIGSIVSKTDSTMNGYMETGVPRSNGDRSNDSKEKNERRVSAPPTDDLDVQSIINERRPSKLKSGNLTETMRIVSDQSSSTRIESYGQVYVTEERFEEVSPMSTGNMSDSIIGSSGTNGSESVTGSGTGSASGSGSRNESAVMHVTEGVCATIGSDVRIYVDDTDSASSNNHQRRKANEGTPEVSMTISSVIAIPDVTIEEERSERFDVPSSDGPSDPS

On to `COCC(=O)O[C@]1(CCN(C)CCCc2nc3ccccc3[nH]2)CCc2cc(F)ccc2[C@@H]1C(C)C` [Mi, mibefradil], for which a half-maximal response at Am-CaV3 [1] (EC50) required 3.5 µM.

For `CC(C)[C@H]1c2ccc(F)cc2CC[C@@]1(CCN(C)CCCc1nc2ccccc2[nH]1)OC(=O)C1CC1` [NN, NNC 55-0396], at Am-CaV3 [2], the “residual current at 10 μM” value is “The mibefradil analogue NNC55-0398 (NN) also had a similar potency”.
